Legend:
aldosterone synthase = molecular target: T1, aldosterone synthase (Homo sapiens, UniProt P19099); assay: in vitro aldosterone synthase inhibition (ASI cell), aldosterone production in NCI-H295R cells; assay type: cell-based; details: 1 μM Ang II, 24 hr
T1 construct: host or cells: NCI-H295R human adrenocortical carcinoma cells
T1 sequence (P19099 25-503): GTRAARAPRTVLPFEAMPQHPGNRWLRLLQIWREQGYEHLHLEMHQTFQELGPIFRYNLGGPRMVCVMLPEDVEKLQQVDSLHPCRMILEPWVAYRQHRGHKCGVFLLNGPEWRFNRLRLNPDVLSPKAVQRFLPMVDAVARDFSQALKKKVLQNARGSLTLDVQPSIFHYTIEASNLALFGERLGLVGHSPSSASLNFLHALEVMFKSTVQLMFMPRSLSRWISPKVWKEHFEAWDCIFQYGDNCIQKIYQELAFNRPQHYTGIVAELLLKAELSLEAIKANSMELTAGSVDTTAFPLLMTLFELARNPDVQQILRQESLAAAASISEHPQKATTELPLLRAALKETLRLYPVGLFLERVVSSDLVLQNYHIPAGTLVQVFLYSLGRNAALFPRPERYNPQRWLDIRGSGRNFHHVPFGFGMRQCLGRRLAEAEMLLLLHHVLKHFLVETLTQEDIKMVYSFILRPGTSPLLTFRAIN
Excerpt: Human adrenocortical carcinoma NCI-H295R cell line is obtained from American Type Culture Collection (Manassas, Va.). Insulin/transferrin/selenium (ITS)-A supplement (100×), DMEM/F-12, antibiotic/antimycotic (100×), and fetal calf serum (FCS) are purchased from Gibco (Grand Island, N.Y.). Anti-mouse PVT scintillation proximity assay (SPA) beads and NBS 96-well plates are obtained from Amersham (Piscataway, N.J.) and Corning (Acton, Mass.), respectively. Solid black 96-well flat bottom plates are purchased from Costar (Corning, N.Y.). Aldosterone and angiotensin (Ang II) are purchased from Sigma (St. Louis, Mo.). D[1,2,6,7-^3H(N)]aldosterone was acquired from PerkinElmer (Boston, Mass.). Nu-serum was a product of BD Biosciences (Franklin Lakes, N.J.). The NADPH regenerating system, dibenzylfluorescein (DBF), and human aromatase Supersomes® are obtained from Gentest (Woburn, Mass.).
For in vitro measurement of aldosterone activity, human adrenocortical carcinoma NCI-H295R cells are seeded in NBS 96-well plates at a density of 25,000 cells/well in 100 μl of a growth medium containing DMEM/F12 supplemented with 10% FCS, 2.5% Nu-serum, 1 μg ITS/ml, and 1× antibiotic/antimycotic. The medium is changed after culturing for 3 days at 37° C. under an atmosphere of 5% CO2/95% air. On the following day, cells are rinsed with 100 μl of DMEM/F12 and incubated with 100 μl of treatment medium containing 1 μM Ang II and a compound at different concentrations in quadruplicate wells at 37° C. for 24 hr. At the end of incubation, 50 μl of medium is withdrawn from each well for measurement of aldosterone production by an RIA using mouse anti-aldosterone monoclonal antibodies.
Measurement of aldosterone activity can also be performed using a 96-well plate format. Each test sample is incubated with 0.02 μCi of D-[1,2,6,7-^3H(N)]aldosterone and 0.3 μg of anti-aldosterone antibody in phosphate-buffered saline (PBS) containing 0.1% Triton X-100, 0.1% bovine serum albumin, and 12%, glycerol in a total volume of 200 μl at room temperature for 1 hr. Anti-mouse PVT SPA beads (50 μl) are then added to each well and incubated overnight at room temperature prior to counting in a Microbeta plate counter. The amount of aldosterone in each sample is calculated by comparing with a standard curve generated using known quantities of the hormone.
Full concentration-response curves of the test compound are performed at least 3 times. The IC50 values are derived using a non-linear least squares curve-fitting program from Microsoft XLfit.

CYP11B1 = molecular target: T2, CYP11B1 (Homo sapiens, UniProt P15538); assay: in vitro CYP11B1 inhibition in NCI-H295R cells; assay type: cell-based; details: read-out: % inhibition CYP11B1 @ 10 nM
T2 construct: Thus, the NCI-H295R cells have CYP11B1 (steroid 11 p-hydroxylase); host or cells: NCI-H295R human adrenocortical carcinoma cells
T2 sequence (P15538 25-503): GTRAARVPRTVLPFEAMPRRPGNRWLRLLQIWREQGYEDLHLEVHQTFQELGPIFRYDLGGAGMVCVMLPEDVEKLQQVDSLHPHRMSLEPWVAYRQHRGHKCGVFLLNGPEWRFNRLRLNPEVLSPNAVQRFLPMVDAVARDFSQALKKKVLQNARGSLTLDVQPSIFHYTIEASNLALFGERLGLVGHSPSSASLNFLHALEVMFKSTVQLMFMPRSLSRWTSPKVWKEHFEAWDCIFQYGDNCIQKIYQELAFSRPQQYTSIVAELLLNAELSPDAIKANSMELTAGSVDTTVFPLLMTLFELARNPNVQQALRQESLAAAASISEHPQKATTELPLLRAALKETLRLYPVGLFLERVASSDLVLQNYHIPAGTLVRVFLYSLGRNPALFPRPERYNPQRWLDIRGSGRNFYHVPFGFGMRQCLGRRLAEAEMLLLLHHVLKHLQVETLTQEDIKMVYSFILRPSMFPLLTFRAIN
Excerpt: The cell line NCI-H295R was originally isolated from an adrenocortical carcinoma and has been characterized in the literature through the stimulable secretion of steroid hormones and the presence of the enzymes essential for steroidogenesis. Thus, the NCI-H295R cells have CYP11B1 (steroid 11 p-hydroxylase). The cells show the physiological property of zonally undifferentiated human foetal adrenocortical cells which, however, have the capacity to produce the steroid hormones which are formed in the three, phenotypically distinguishable zones in the adult adrenal cortex. […]
The excretion of aldosterone, cortisol, corticosterone and estradiol/estrone into the culture medium can be detected and quantified by commercially available, specific monoclonal antibodies in radioimmunoassays in accordance with the manufacturer's instructions.
Inhibition of the release of certain steroids can be used as a measure of the respective enzyme inhibition by the added test compounds. The dose-dependent inhibition of enzymic activity by a compound is calculated by means of an inhibition plot which is characterized by an IC50. […]

IC50 (aldosterone synthase) [nM]	inhibition at 0.01 µM (CYP11B1) [%]	Compound
7		CC1(C)C(=O)Nc2cccc(Cl)c2C1n1cncc1CO (racemic) [Compound 8, 5-Chloro-4-(5-hydroxymethyl-imidazol-1-yl)-3,3-dimethyl-3,4-dihydro-1H-quinolin-2-one]
137		Cc1noc(-c2cncn2C2c3ccccc3NC(=O)C2(C)C)n1 (racemic) [Compound 10, 3,3-Dimethyl-4-[5-(3-methyl-[1,2,4]oxadiazol-5-yl)-imidazol-1-yl]-3,4-dihydro-1H-quinolin-2-one]

Second part, the compound before the results:

Compound	IC50 (aldosterone synthase) [nM]	inhibition at 0.01 µM (CYP11B1) [%]
COc1ccc2c(c1)NC(=O)C(C)(C)C2n1ccnc1 (racemic) [Compound 6, 7-methoxy-4-Imidazol-1-yl-3,3-dimethyl-3,4-dihydro-1H-quinolin-2-one]	34	84
CN1C(=O)C(C)(C)C(n2ccnc2)c2ccccc21 (racemic) [Compound 7, 4-Imidazol-1-yl-1,3,3-trimethyl-3,4-dihydro-1H-quinolin-2-one]	10	100
Cc1cncn1C1c2ccc(F)cc2NC(=O)C1(C)C (racemic) [Compound 9, 7-Fluoro-3,3-dimethyl-4-(5-methyl-imidazol-1-yl)-3,4-dihydro-1H-quinolin-2-one]	12	

Reference: patent publication US8143278B2, “Organic compounds” (Novartis AG, priority 2006, dated 2012)
